Test results reported in patent US9101620B2, “Polymorph of 3-(substituteddihydroisoindolinone-2-yl)-2,6-dioxopiperidine, and pharmaceutical compositions thereof” (Nanjing Cavendish Bio-Engineering Technology Co., Ltd., priority 2009, dated 2015).
“Also recorded” adds a separate entry of the source.

Tests used:
Format in all cases: physicochemical
[1] = Solubility test according to Chinese Pharmacopoeia Edition 2005; conditions: for Dissolving status: within 30 minutes
Protocol: Test was performed according to the Examples of Chinese Pharmacopoeia Edition 2005. Method: a definite quantity of the Polymorph I of 3-(4-amino-1-oxo-1,3-dihydro-2H-isoindole-2-yl)-piperidine-2,6-dione (hemihydrate) measured accurately was added into a certain quantity of solvent slowly, while the mixture was shaken strongly for 30 seconds every 5 minutes and the dissolving status within 30 minutes was observed. Results were listed in Tab. 1.
(§1) Test was performed according to the Examples of Chinese Pharmacopoeia Edition 2005. Method: a definite quantity of the (acetonitrile) solvated Polymorph II of 3-(4-amino-1-oxo-1,3-dihydro-2H-isoindole-2-yl)-piperidine-2,6-dione measured accurately was added into a certain quantity of solvent slowly, while the mixture was shaken strongly for 30 seconds every 5 minutes and the dissolving status within 30 minutes was observed. Results were listed in Tab. 61.
as §1, with “(acetone)” for “(acetonitrile)”, “polymorph III” for “Polymorph II”, “slowly” for “slowly,”, “11.” for “61.”

[2] = High temperature test (60° C.); conditions: for Appearance / Content / Related substance: 60° C.; for Variation of appearance and content (in words): high temperature (60° C.) test, summary
Description: (§2) The conditions and methods of related substance test involved in this invention were in accordance with HPLC (Appendix VD of Chinese Pharmacopoeia Edition 2005).
(§3) Chromatographic conditions and system applicability: octadecylsilane bonded silica as the filler; 0.01 mol/L of potassium dihydrogen phosphate (adjusted to pH 3.5 by phosphoric acid)-methanol-acetonitrile (80:15:5) as the mobile phase; detection wavelength was 240 nm; the number of theoretical plates should be not less than 2000, calculated according to the peak of 3-(4-amino-1-oxo-1,3-dihydro-2H-isoindole-2-yl)-piperidine-2,6-dione. The resolution of the peak of 3-(4-amino-1-oxo-1,3-dihydro-2H-isoindole-2-yl)-piperidine-2,6-dione from the peaks of adjacent impurities should meet requirements.
The raw material of Polymorph I of 3-(4-amino-1-oxo-1,3-dihydro-2H-isoindole-2-yl)-piperidine-2,6-dione (hemihydrate) was put into a clean sealed glass bottle and then put in thermostatic drying chamber at 60° C. Sample was tested at the 5th and 10th day respectively and the results were contrasted with that of the Day 0. Results were listed in Tab. 3. After high temperature test of 60° C. for 10 days, the X-ray powder diffraction pattern was shown FIG. 7; DSC diagram was in FIG. 8.
(§4) The raw material of Polymorph II of 3-(4-amino-1-oxo-1,3-dihydro-2H-isoindole-2-yl)-piperidine-2,6-dione was put into a clean sealed glass bottle and then put in thermostatic drying chamber at 60° C. Sample was tested at the 5th and 10th day respectively and the results were contrasted with that of the Day 0. Results were listed in Tab. 8. After high temperature test of 60° C. for 10 days, the X-ray powder diffraction pattern was shown in FIG. 18; DSC diagram was in FIG. 19.
as §4, with “III” for “II”, “13.” for “8.”, “29;” for “18;”, “30.” for “19.”

[3] = Photostability test (strong illumination); conditions: for Appearance / Content / Related substance: 4500±500 Lx; for Variation of appearance and content (in words): photostability (illumination) test, summary
Description: as §2, §3
The Polymorph I of 3-(4-amino-1-oxo-1,3-dihydro-2H-isoindole-2-yl)-piperidine-2,6-dione (hemihydrate) was distributed homogeneously in open petri dish with the thickness of the raw material not more than 5 mm, and the distance was adjusted to make illumination intensity at 4500±500 Lx. Sample was tested at the 5th and 10th day respectively and the results were contrasted with that of the Day 0. Results were listed in Tab. 2. After strong illumination for 10 days, the X-ray powder diffraction pattern was shown in FIG. 5; DSC diagram of the Polymorph I of 3-(4-amino-1-oxo-1,3-dihydro-2H-isoindole-2-yl)-piperidine-2,6-dione (hemihydrate) was in FIG. 6.
(§5) The Polymorph II of 3-(4-amino-1-oxo-1,3-dihydro-2H-isoindole-2-yl)-piperidine-2,6-dione was distributed homogeneously in open petri dish with the thickness of the raw material not more than 5 mm and the distance was adjusted to make illumination intensity at 4500±500 Lx. Sample was tested at the 5th and 10th day respectively and the results were contrasted with that of the Day 0. Results were listed in Tab. 7. After strong illumination for 10 days, the X-ray powder diffraction pattern was shown in FIG. 16; DSC diagram was in FIG. 17
as §5, with “III” for “II”, “12.” for “7.”, “27;” for “16;”, “28” for “17”

Nc1cccc2c1CN(C1CCC(=O)NC1=O)C2=O (single isomer, unassigned) [Polymorph I, 3-(4-amino-1-oxo-1,3-dihydro-2H-isoindole-2-yl)-piperidine-2,6-dione]
Conclusion (solubility) ([1]; 0.1 mol/L HCl solution): slightly | Conclusion (solubility) ([1]; 0.1 mol/L HCl solution, listed as Polymorph 1): slightly soluble | Dissolving status ([1]; 0.1 mol/L HCl solution): fully | Conclusion (solubility) ([1]; 0.1 mol/L NaOH solution): sparingly | Conclusion (solubility) ([1]; 0.1 mol/L NaOH solution, listed as Polymorph 1): sparingly soluble | Dissolving status ([1]; 0.1 mol/L NaOH solution): fully | Conclusion (solubility) ([1]; DMF (N,N-dimethylformamide), listed as Polymorph 1): soluble | Dissolving status ([1]; DMF): fully | Conclusion (solubility) ([1]; DMSO (dimethylsulfoxide)): freely | Conclusion (solubility) ([1]; DMSO (dimethylsulfoxide), listed as Polymorph 1): freely soluble | Dissolving status ([1]; DMSO): fully | Conclusion (solubility) ([1]; acetic acid, listed as Polymorph 1): soluble | Dissolving status ([1]; acetic acid): fully | Conclusion (solubility) ([1]; acetone): slightly | Conclusion (solubility) ([1]; acetone, listed as Polymorph 1): slightly soluble | Dissolving status ([1]; acetone): fully | Conclusion (solubility) ([1]; acetonitrile): slightly | Conclusion (solubility) ([1]; acetonitrile, listed as Polymorph 1): slightly soluble | Dissolving status ([1]; acetonitrile): fully | Conclusion (solubility) ([1]; ethanol): very slightly | Conclusion (solubility) ([1]; ethanol, listed as Polymorph 1): very slightly soluble | Dissolving status ([1]; ethanol): fully | Conclusion (solubility) ([1]; ethyl acetate): very slightly | Conclusion (solubility) ([1]; ethyl acetate, listed as Polymorph 1): very slightly soluble | Dissolving status ([1]; ethyl acetate): fully | Conclusion (solubility) ([1]; methanol): slightly | Conclusion (solubility) ([1]; methanol, listed as Polymorph 1): slightly soluble | Dissolving status ([1]; methanol): fully | Conclusion (solubility) ([1]; water): very slightly | Conclusion (solubility) ([1]; water, listed as Polymorph 1): very slightly soluble | Dissolving status ([1]; water): fully | Appearance ([2]; 0 days): off-white powder | Content ([2]; 0 days): 99.87% | Related substance ([2]; 0 days): 0.05% | Appearance ([2]; 5 days): off-white powder | Content ([2]; 5 days): 99.86% | Related substance ([2]; 5 days): 0.05% | Appearance ([2]; 10 days): off-white powder | Content ([2]; 10 days): 99.84% | Related substance ([2]; 10 days): 0.06% | Variation of appearance and content (in words) [2]: few significant variation | Appearance ([3]; 0 days): off-white powder | Content ([3]; 0 days): 99.87% | Related substance ([3]; 0 days): 0.05% | Appearance ([3]; 5 days): off-white powder | Content ([3]; 5 days): 99.85% | Related substance ([3]; 5 days): 0.05% | Appearance ([3]; 10 days): off-white powder | Content ([3]; 10 days): 99.86% | Related substance ([3]; 10 days): 0.05% | Variation of appearance and content (in words) [3]: few significant variation

Nc1cccc2c1CN(C1CCC(=O)NC1=O)C2=O (single isomer, unassigned) [Polymorph II, 3-(4-amino-1-oxo-1,3-dihydro-2H-isoindole-2-yl)-piperidine-2,6-dione]
Conclusion (solubility) ([1]; 0.1 mol/L HCl solution): sparingly soluble | Dissolving status ([1]; 0.1 mol/L HCl solution): fully | Conclusion (solubility) ([1]; 0.1 mol/L NaOH solution): slightly soluble | Dissolving status ([1]; 0.1 mol/L NaOH solution): fully | Conclusion (solubility) ([1]; DMF (N,N-dimethylformamide)): freely soluble | Dissolving status ([1]; DMF): fully | Conclusion (solubility) ([1]; DMSO (dimethylsulfoxide)): freely soluble | Dissolving status ([1]; DMSO): fully | Conclusion (solubility) ([1]; acetic acid): sparingly soluble | Dissolving status ([1]; acetic acid): fully | Conclusion (solubility) ([1]; acetone): slightly soluble | Dissolving status ([1]; acetone): fully | Conclusion (solubility) ([1]; acetonitrile): slightly soluble | Dissolving status ([1]; acetonitrile): fully | Conclusion (solubility) ([1]; ethanol): very slightly soluble | Dissolving status ([1]; ethanol): fully | Conclusion (solubility) ([1]; ethyl acetate): very slightly soluble | Dissolving status ([1]; ethyl acetate): fully | Conclusion (solubility) ([1]; methanol): very slightly soluble | Dissolving status ([1]; methanol): fully | Conclusion (solubility) ([1]; water): nearly insoluble; also recorded: practically | Dissolving status ([1]; water): cannot fully | Appearance ([2]; 0 days): Off-white powder | Content ([2]; 0 days): 99.89% | Related substance ([2]; 0 days): 0.09% | Appearance ([2]; 5 days): Off-white powder | Content ([2]; 5 days): 99.86% | Related substance ([2]; 5 days): 0.09% | Appearance ([2]; 10 days): Off-white powder | Content ([2]; 10 days): 99.87% | Related substance ([2]; 10 days): 0.10% | Variation of appearance and content (in words) [2]: few significant variation | Appearance ([3]; 0 days): off-white powder | Content ([3]; 0 days): 99.89% | Related substance ([3]; 0 days): 0.09% | Appearance ([3]; 5 days): off-white powder | Content ([3]; 5 days): 99.89% | Related substance ([3]; 5 days): 0.09% | Appearance ([3]; 10 days): off-white powder | Content ([3]; 10 days): 99.88% | Related substance ([3]; 10 days): 0.09% | Variation of appearance and content (in words) [3]: few significant variation

Nc1cccc2c1CN(C1CCC(=O)NC1=O)C2=O (single isomer, unassigned) [Polymorph III, 3-(4-amino-1-oxo-1,3-dihydro-2H-isoindole-2-yl)-piperidine-2,6-dione]
Conclusion (solubility) ([1]; 0.1 mol/L HCl solution): slightly soluble | Dissolving status ([1]; 0.1 mol/L HCl solution): fully | Conclusion (solubility) ([1]; 0.1 mol/L NaOH solution): sparingly soluble | Dissolving status ([1]; 0.1 mol/L NaOH solution): fully | Conclusion (solubility) ([1]; DMF (N,N-dimethylformamide)): soluble | Dissolving status ([1]; DMF): fully | Conclusion (solubility) ([1]; DMSO (dimethylsulfoxide)): soluble | Dissolving status ([1]; DMSO): fully | Conclusion (solubility) ([1]; acetic acid): sparingly soluble | Dissolving status ([1]; acetic acid): fully | Conclusion (solubility) ([1]; acetone): slightly soluble | Dissolving status ([1]; acetone): fully | Conclusion (solubility) ([1]; acetonitrile): slightly soluble | Dissolving status ([1]; acetonitrile): fully | Conclusion (solubility) ([1]; ethanol): very slightly soluble and very | Dissolving status ([1]; ethanol): fully | Conclusion (solubility) ([1]; ethyl acetate): very slightly soluble and very | Dissolving status ([1]; ethyl acetate): fully | Conclusion (solubility) ([1]; methanol): slightly soluble | Dissolving status ([1]; methanol): fully | Conclusion (solubility) ([1]; water): very slightly soluble; also recorded: practically | Dissolving status ([1]; water): cannot fully | Appearance ([2]; 0 days): off-white powder | Content ([2]; 0 days): 99.86% | Related substance ([2]; 0 days): 0.07% | Appearance ([2]; 5 days): off-white powder | Content ([2]; 5 days): 99.84% | Related substance ([2]; 5 days): 0.07% | Appearance ([2]; 10 days): off-white powder | Content ([2]; 10 days): 99.83% | Related substance ([2]; 10 days): 0.08% | Variation of appearance and content (in words) [2]: few significant variation | Appearance ([3]; 0 days): off-white powder | Content ([3]; 0 days): 99.86% | Related substance ([3]; 0 days): 0.07% | Appearance ([3]; 5 days): off-white powder | Content ([3]; 5 days): 99.85% | Related substance ([3]; 5 days): 0.07% | Appearance ([3]; 10 days): off-white powder | Content ([3]; 10 days): 99.85% | Related substance ([3]; 10 days): 0.07% | Variation of appearance and content (in words) [3]: few significant variation
